Like-named read-outs stand apart in the source and are kept apart here.

Common to all, as to assay type: in vitro ADME
Series [1] is described as follows: Metabolic stability in pooled human liver microsomes with or without NADPH. Conditions: human, pooled human liver microsomes, pooled human liver microsomes 0.5 mg/mL in PBS, 1 uM test compound, 37° C. As for the experimental part: Pooled human liver microsomes in PBS at a concentration of 0.5 mg/mL was incubated with or without 1 mM NADPH for 70 min at 37° C. Test compound was added after 10 minutes to a final concentration of 1 uM. Samples were withdrawn at 0, 5, 15 and 60 minutes and added to test tubes containing acetonitrile, to stop the reaction, and with terfenadine, used as internal standard. After centrifugation at 10000×g for 5 minutes the supernatant was diluted 1:1 with 1% formic acid. Samples were separated on a reverse phase column and detected by triple quadrupole MSMS (Agilant model 6540). The concentration of the parent compound at the different time points was measured with an external standard curve using terfenadine as internal standard and the initial metabolic rate in the presence or absence of NADPH calculated.
Background: Liver microsomes are a subcellular fraction often used to study metabolism.

The next series has as its target T1, CYP1A (Homo sapiens, UniProt P05177).
T1 construct: using isoform-specific substrates incubated with human liver microsomes; tissue Eurofins ITEMG232; host or cells: human liver microsomes
T1 sequence (P05177 2-516 limits assumed): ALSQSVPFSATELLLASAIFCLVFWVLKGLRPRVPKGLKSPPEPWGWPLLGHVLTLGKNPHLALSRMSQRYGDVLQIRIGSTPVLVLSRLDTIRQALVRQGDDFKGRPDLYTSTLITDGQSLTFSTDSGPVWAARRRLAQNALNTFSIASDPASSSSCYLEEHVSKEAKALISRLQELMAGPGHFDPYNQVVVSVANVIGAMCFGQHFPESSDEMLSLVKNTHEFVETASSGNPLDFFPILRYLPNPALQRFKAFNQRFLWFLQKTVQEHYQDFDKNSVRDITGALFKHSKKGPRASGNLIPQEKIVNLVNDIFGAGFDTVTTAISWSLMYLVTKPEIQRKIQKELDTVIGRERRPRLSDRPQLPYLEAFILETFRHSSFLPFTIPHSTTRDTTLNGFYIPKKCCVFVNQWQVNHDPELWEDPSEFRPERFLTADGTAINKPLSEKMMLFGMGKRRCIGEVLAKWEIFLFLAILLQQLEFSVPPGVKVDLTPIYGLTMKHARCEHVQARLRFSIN
As to the kind of experiment: CYP inhibition in human liver microsomes (Eurofins protocol ITEMG232). The following applies: probe phenacetin, substrate phenacetin, read-out: CYP1A Inh %. The protocol:
(§1) The following substrates were used; CYP1A phenacetin, CYP2B6 bupropion, CYP2C8 paclitaxel and amodiaquine, CYP2C9 diclofenac, CYP2C19 omeprazole, CYP2D6 dextromethorphan, CYP3A midazolam and testosterone.
(§2) At the end of the incubation, the formation of metabolite was monitored by HPLC-MS/MS as the peak area response.

The target of another series is T2, CYP2B6 (Homo sapiens, UniProt P20813).
T2 construct: using isoform-specific substrates incubated with human liver microsomes; tissue Eurofins ITEMG232; host or cells: human liver microsomes
T2 sequence (P20813 1-491): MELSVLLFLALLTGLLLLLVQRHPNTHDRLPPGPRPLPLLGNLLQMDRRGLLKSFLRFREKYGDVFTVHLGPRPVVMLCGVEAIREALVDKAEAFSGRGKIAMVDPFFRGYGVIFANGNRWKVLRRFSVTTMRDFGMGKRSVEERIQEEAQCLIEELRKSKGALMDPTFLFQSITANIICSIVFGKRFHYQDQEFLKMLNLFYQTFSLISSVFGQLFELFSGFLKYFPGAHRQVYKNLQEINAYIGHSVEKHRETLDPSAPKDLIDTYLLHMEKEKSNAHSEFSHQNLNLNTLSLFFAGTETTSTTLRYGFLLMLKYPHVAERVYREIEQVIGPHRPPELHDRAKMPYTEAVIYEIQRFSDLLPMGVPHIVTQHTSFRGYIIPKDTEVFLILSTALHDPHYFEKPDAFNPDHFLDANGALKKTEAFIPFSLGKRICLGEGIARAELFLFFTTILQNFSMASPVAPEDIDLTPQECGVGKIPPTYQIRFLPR
The description is as above. Conditions: probe bupropion, substrate bupropion, read-out: CYP2B6 Inh %. The protocol: as §1, §2

In another series the target is T3, CYP2C19 (Homo sapiens, UniProt P33261).
T3 construct: using isoform-specific substrates incubated with human liver microsomes; tissue Eurofins ITEMG232; host or cells: human liver microsomes
The series is described as above. The following applies: probe omeprazole, substrate omeprazole, read-out: CYP2C19 Inh %. The protocol: as §1, §2

In the next series the target is T4, CYP2C8 (Homo sapiens, UniProt P10632).
T4 construct: using isoform-specific substrates incubated with human liver microsomes; tissue Eurofins ITEMG232; host or cells: human liver microsomes
T4 sequence (P10632 1-490): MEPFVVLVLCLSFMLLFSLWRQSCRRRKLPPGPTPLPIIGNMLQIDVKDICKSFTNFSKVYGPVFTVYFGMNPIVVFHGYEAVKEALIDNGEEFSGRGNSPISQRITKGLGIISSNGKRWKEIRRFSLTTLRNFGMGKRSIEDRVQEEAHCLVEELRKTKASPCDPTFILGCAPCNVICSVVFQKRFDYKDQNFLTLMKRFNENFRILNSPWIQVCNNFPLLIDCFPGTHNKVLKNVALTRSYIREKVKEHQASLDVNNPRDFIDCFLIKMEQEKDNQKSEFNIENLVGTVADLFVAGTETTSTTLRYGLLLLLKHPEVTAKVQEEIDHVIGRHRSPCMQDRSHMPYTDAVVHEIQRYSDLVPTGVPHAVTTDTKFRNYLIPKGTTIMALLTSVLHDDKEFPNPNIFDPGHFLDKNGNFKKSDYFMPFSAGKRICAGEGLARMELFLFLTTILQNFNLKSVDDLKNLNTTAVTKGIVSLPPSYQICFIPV
The series is described as above. The following applies: probe paclitaxel and amodiaquine, substrates paclitaxel and amodiaquine, read-out: CYP2C8 Inh %. As for the experimental part: as §1, §2

In a further series the target is T5, CYP2D6 (Homo sapiens, UniProt P10635).
T5 construct: tissue Eurofins ITEMG232; host or cells: human liver microsomes
The description is as above. The following applies: probe dextromethorphan, substrate dextromethorphan, read-out: CYP2D6 Inh %. As for the experimental part: as §1, §2

The subject of another series is CYP3A4&5. As to the kind of experiment: CYP inhibition in human liver microsomes (Eurofins protocol ITEMG232), testosterone substrate. The following applies: probe testosterone, read-out: CYP3A4&5 testosterone Inh %. The protocol: as §1, §2
The target of a further series is CYP2C9 (Homo sapiens, UniProt P11712). Description: CYP inhibition in human liver microsomes (Eurofins protocol ITEMG232). On the set-up: using isoform-specific substrates incubated with human liver microsomes; tissue Eurofins ITEMG232; host or cells: human liver microsomes. The following applies: probe diclofenac, substrate diclofenac, read-out: CYP2C9 Inh %. As for the experimental part:
as §1, §2

A further series deals with CYP3A4 (Homo sapiens, UniProt P08684). As to the kind of experiment: CYP inhibition in human liver microsomes (Eurofins protocol ITEMG232), midazolam substrate. On the set-up: using isoform-specific substrates incubated with human liver microsomes; tissue Eurofins ITEMG232; host or cells: human liver microsomes. The following applies: probe midazolam, read-out: CYP3A4 midazolam Inh %. As for the experimental part: as §1, §2

Setting [2] is: with 1 mM NADPH, read-out: T1/2, +NaDPH.
Setting [3] is: without NADPH, read-out: T1/2, no NaDPH.

T5 sequence (P10635 whole entry): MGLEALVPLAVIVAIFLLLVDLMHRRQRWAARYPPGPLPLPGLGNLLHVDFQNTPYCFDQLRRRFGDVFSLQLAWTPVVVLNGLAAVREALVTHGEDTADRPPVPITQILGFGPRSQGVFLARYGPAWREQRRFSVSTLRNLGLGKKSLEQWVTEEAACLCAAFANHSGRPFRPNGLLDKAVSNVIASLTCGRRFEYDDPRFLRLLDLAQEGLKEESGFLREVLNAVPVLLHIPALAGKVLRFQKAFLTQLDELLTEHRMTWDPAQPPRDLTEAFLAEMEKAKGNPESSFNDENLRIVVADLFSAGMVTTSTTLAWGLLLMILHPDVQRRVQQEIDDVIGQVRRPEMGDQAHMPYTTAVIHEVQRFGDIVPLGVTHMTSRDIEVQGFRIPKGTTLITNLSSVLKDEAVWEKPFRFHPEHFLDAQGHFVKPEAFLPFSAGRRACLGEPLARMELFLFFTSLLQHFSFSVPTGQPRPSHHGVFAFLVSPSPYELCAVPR
CYP2C9, sequence (P11712 whole entry, canonical isoform): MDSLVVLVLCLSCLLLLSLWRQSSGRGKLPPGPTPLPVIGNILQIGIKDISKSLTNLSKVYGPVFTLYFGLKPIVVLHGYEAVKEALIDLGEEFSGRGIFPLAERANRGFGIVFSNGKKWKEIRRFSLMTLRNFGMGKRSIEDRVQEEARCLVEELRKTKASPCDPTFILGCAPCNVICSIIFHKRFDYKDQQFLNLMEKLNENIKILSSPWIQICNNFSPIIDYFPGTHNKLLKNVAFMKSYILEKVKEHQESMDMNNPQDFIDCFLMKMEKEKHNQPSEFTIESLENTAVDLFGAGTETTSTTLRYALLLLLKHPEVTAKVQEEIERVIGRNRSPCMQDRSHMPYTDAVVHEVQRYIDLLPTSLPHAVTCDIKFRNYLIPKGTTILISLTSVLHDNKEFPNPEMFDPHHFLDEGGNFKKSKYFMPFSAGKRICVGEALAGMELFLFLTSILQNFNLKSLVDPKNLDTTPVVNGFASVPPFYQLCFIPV
CYP3A4, sequence (P08684 whole entry, canonical isoform): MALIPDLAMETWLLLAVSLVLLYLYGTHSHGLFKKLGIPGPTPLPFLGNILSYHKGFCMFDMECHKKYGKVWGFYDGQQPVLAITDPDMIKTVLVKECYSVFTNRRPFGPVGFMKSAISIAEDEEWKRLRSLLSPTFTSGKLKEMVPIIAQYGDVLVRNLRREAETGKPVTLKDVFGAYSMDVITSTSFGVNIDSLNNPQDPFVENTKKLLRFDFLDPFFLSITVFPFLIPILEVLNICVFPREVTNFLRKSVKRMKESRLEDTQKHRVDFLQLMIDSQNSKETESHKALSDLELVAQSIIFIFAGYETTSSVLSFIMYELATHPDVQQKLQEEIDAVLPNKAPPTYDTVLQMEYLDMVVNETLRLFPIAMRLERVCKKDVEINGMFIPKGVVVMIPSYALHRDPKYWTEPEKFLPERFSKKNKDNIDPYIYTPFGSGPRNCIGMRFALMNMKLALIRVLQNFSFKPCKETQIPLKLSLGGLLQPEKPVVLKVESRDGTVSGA
T3 sequence (P33261 whole entry, canonical isoform): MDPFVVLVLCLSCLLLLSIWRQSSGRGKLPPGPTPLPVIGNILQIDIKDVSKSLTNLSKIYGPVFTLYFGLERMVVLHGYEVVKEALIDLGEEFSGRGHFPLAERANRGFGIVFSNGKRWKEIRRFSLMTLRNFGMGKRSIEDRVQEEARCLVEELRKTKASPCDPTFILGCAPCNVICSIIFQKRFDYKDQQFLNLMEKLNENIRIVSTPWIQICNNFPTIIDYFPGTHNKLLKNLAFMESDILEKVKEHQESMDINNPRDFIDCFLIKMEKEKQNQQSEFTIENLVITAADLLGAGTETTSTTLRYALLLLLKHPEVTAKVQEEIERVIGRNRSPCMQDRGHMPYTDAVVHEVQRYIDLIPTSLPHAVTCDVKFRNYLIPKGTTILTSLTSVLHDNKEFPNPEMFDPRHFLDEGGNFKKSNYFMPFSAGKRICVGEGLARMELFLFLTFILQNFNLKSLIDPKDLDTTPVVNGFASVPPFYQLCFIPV

Regarding `Cc1nccn1Cc1ccc(-c2cc(CC(C)C)sc2S(=O)(=O)NC(=O)C(C)(C)C)cc1F` [Example 22, N-((3-(3-Fluoro-4-((2-methyl-1H-imidazol-1-yl)methyl)phenyl)-5-isobutylthiophen-2-yl)sulfonyl)pivalamide], the half-life at 1 uM in series [1] (setting [2]) is 29 min; in series [1] (setting [3]), 44 min. Also, the inhibition at 10 µM is -15.3% on CYP1A; 1.6% on CYP2B6; 45.9% at CYP2C19; 53.9% at CYP2C8; 18.9% at CYP2D6; 23.8% with CYP3A4&5. For the same compound, the inhibition at 10 µM is 23.3% at CYP2C9 and 51.7% at CYP3A4.

Consider `COC(=O)NS(=O)(=O)c1sc(CC(C)C)cc1-c1ccc(Cn2ccnc2C(C)(C)C)c(F)c1` [Example 20, Methyl (3-(4-((2-(tert-butyl)-1H-imidazol-1-yl)methyl)-3-fluorophenyl)-5-isobutylthiophen-2-yl)sulfonylcarbamate], for which the inhibition at 10 µM at CYP1A was 46%; at CYP2B6, 32.6%; at CYP2C19, 45.6%; on CYP2C8 it was 90.5%; at CYP2D6, 22.3%; in the series on CYP3A4&5, -4.8%. In addition, the inhibition at 10 µM is 57.9% at CYP2C9 and -56.9% at CYP3A4.

Turning to `CCc1nccn1Cc1ccc(-c2cc(CC(C)C)sc2S(=O)(=O)NC(=O)OCCC(F)(F)F)cc1F.O=C(O)C(F)(F)F` [Example 5, 3,3,3-Trifluoropropyl (3-(4-((2-ethyl-1H-imidazol-1-yl)methyl)-3-fluorophenyl)-5-iso-butyl-thiophen-2-yl)sulfonylcarbamate trifluoroacetic acid], the results for the half-life at 1 uM in series [1] (setting [2]) and in series [1] (setting [3]) were 18 min and 55 min, respectively. Further, the inhibition at 10 µM on CYP1A was found to be 35%; on CYP2B6 it was 37%; at CYP2C19, 63%; at CYP2C8, 64%; at CYP2D6, 49%; in the series with CYP3A4&5, 5%. Further, the inhibition at 10 µM on CYP2C9 was 71%; on CYP3A4, -24%.

For `Cc1nccn1Cc1ccc(-c2cc(CC(C)C)sc2S(=O)(=O)NC(=O)OCCO)cc1F.O=C(O)C(F)(F)F` [Example 4, 2-Hydroxyethyl (3-(3-fluoro-4-((2-methyl-1H-imidazol-1-yl)methyl)phenyl)-5-isobutyl-thiophen-2-yl)sulfonylcarbamate trifluoroacetic acid], the half-life at 1 uM in series [1] (setting [2]) and in [1] (setting [3]) was above 60 min in each case. Besides, the inhibition at 10 µM was 27% at CYP1A; 55% on CYP2B6; 31% at CYP2C19; 54% on CYP2C8; 54% on CYP2D6; 22% in the series with CYP3A4&5. Further, the figures for the inhibition at 10 µM on CYP2C9 and at CYP3A4 were 58% and -66%, respectively.

Turning to `CC(C)Cc1cc(-c2ccc(Cn3ccnc3C(C)(C)C)c(F)c2)c(S(=O)(=O)NC(=O)OCCO)s1` [Example 17, 2-Hydroxyethyl (3-(4-((2-(tert-butyl)-1H-imidazol-1-yl)methyl)-3-fluorophenyl)-5-isobutylthiophen-2-yl)sulfonylcarbamate], the inhibition at 10 µM worked out at 29.9% on CYP1A; 33.8% at CYP2B6; 53.1% at CYP2C19; 78.6% on CYP2C8; 73.4% on CYP2D6; 3.7% with CYP3A4&5. Besides, the inhibition at 10 µM was 36.8% at CYP2C9 and -20.6% at CYP3A4.

On to `CC(C)Cc1cc(-c2ccc(Cn3ccnc3C(C)(C)C)c(F)c2)c(S(=O)(=O)NC(=O)OCC(C)(C)O)s1` [Example 23, 2-Hydroxy-2-methylpropyl (3-(4-((2-(tert-butyl)-1H-imidazol-1-yl)methyl)-3-fluoro-Phenyl)-5-isobutylthiophen-2-yl)sulfonylcarbamate], for which the inhibition at 10 µM at CYP1A was found to be 16.7%; at CYP2B6 it was 16.8%; on CYP2C19, 51.2%; on CYP2C8 it was 74.7%; on CYP2D6 it was 5.8%; in the series on CYP3A4&5, 12.5%. Moreover, the inhibition at 10 µM at CYP2C9 was 47%; on CYP3A4 it was -14.1%.

As for `CCCCOC(=O)NS(=O)(=O)c1sc(CC(C)C)cc1-c1ccc(Cn2ccnc2C)c(F)c1` [Example 2, Butyl (3-(3-fluoro-4-((2-methyl-1H-imidazol-1-yl)methyl)phenyl)-5-isobutylthiophen-2-yl)sulfonylcarbamate trifluoroacetic acid], the inhibition at 10 µM at CYP1A worked out at 19%; at CYP2B6 it was 41%; on CYP2C19, 55%; on CYP2C8, 80%; on CYP2D6 it was 22%; in the series with CYP3A4&5, 21%. Also, the inhibition at 10 µM was 70% at CYP2C9 and -15% at CYP3A4.

Source of the values: patent US20230348444A1, “NOVEL COMPOUNDS FOR USE IN THE TREATMENT OF DISEASES ASSOCIATED WITH ANGIOTENSIN II” (Vicore Pharma AB, priority 2020, published 2023).
